Assay results reported in patent publication US20130137111A1, “DETECTION METHOD OF NOVEL RET FUSION” (Astellas Pharma Inc., priority 2010, published 2013).

Experiments:
[1] = system: FLAG-KIF5B-RETv1S/NIH3T3 cells; assay: Anchorage-independent cell growth inhibition in spheroid plate (CellTiter-Glo); format: cell-based; conditions: Mus musculus, 120 h, final concentration 1.1 μM, 96-well spheroid plate, cultured 5 days, DMSO = 0%, medium only = 100%, read-out: growth inhibition rate (%)
Experimental: The measurement (colony method or the like) of anchorage-independent cell growth is known to be a system for examining the anticancer action (pharmacological effect) of a compound (“Clinical Oncology” 2nd edition, Japanese Journal of Cancer & Chemotherapy). As a method that measures the growth of non-adherent cells unlike the colony method, there is a method using a spheroid plate as described above.
In addition, a plate to which only a medium was added was prepared as a […]. […] As a […], DMSO as solvent of the compound was added thereto at the same concentration (0.1%) as the compound. Thereafter, the cells were cultured for 5 days at 37° C. in the presence of 5% CO2, and the cell counting reagent (CellTiter-Gio™ Luminescent Cell Viability Assay; Promega Corporation) was added thereto, followed by stirring for 20 minutes. Thereafter, the cells were measured using a luminescence measurement instrument (Envision; PerkinElmer Inc.). The values of positive control and negative control were regarded as 100% inhibition value and 0% inhibition value respectively to calculate the growth inhibition rate (%) of the respective compounds.

[2] = target: T1, KIF5B-RET fusion polypeptide v1S (Homo sapiens, UniProt P07949); assay: cell-based; conditions: NIH3T3, read-out: phosphorylation inhibition rate
T1 sequence (P07949 with tags, fused parts or gaps isoform P07949-2): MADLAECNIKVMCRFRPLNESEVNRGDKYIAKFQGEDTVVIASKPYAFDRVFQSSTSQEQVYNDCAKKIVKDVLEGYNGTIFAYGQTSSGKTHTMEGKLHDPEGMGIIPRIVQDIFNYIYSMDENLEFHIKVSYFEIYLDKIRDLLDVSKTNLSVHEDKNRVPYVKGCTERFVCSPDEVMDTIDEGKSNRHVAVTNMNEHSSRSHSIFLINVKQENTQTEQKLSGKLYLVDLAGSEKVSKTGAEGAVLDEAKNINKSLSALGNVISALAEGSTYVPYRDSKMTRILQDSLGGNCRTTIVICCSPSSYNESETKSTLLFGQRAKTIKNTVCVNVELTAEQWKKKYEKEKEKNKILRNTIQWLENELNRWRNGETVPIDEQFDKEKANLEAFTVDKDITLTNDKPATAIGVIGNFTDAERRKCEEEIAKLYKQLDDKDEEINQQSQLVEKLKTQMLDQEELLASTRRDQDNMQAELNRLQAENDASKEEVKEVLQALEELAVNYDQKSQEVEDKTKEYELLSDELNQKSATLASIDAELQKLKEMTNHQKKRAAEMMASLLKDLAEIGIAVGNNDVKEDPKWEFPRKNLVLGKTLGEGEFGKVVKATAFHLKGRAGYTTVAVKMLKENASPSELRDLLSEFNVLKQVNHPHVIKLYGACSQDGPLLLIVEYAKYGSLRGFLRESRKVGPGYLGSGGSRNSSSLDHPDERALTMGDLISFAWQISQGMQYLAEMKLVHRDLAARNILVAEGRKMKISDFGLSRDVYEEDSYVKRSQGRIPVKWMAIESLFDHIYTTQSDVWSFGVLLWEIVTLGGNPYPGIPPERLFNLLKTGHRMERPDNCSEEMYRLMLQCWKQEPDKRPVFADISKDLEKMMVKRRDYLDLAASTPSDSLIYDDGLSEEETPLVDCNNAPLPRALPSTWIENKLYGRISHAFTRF

Compound	inhibition at 1.1 µM [1] [%]	inhibition at 1 µM [2] [%]
CNC(=O)c1cc(Oc2ccc(NC(=O)Nc3ccc(Cl)c(C(F)(F)F)c3)cc2)ccn1 [Sorafenib]	96	–
CCN(CC)CCNC(=O)c1c(C)[nH]c(/C=C2\C(=O)Nc3ccc(F)cc32)c1C [Sunitinib]	77	57
COc1cc2c(Nc3ccc(Br)cc3F)ncnc2cc1OCC1CCN(C)CC1 [Vandetanib]	83	–
